Source: ChEMBL document CHEMBL4308841, “Synthesis, in vitro antiproliferative activity, and kinase inhibitory effects of pyrazole-containing diarylureas and diarylamides” (Eur J Med Chem, 2018)

Legend:
NCI-H23 [1] = assay: Growth inhibition of human NCI-H23 cells incubated for 48 hrs by sulforhodamine B assay; type: functional, cell-based; details: NCI-H23, 48 h
HCC 2998 [2] = assay: Growth inhibition of human HCC2998 cells incubated for 48 hrs by sulforhodamine B assay; type: functional, cell-based; details: HCC 2998, 48 h
HCT-15 = assay: Growth inhibition of human HCT15 cells incubated for 48 hrs by sulforhodamine B assay; type: functional, cell-based; details: HCT-15, 48 h
M14 = assay: Growth inhibition of human M14 cells incubated for 48 hrs by sulforhodamine B assay; type: functional, cell-based; details: M14, 48 h
SK-MEL-28 = assay: Growth inhibition of human SK-MEL-28 cells incubated for 48 hrs by sulforhodamine B assay; type: functional, cell-based; details: SK-MEL-28, 48 h
PC-3 [3] = assay: Growth inhibition of human PC3 cells incubated for 48 hrs by sulforhodamine B assay; type: functional, cell-based; details: PC-3, 48 h
SR = assay: Growth inhibition of human SR cells assessed as cell growth at 0.01 uM incubated for 48 hrs by sulforhodamine B assay relative to control; type: functional; details: read-out: Activity
NCI-H460 = assay: Growth inhibition of human NCI-H460 cells assessed as cell growth at 0.01 uM incubated for 48 hrs by sulforhodamine B assay relative to control; type: functional; details: NCI-H460, 48 h, read-out: Activity
HCC 2998 [4] = assay: Growth inhibition of human HCC2998 cells assessed as cell growth at 0.01 uM incubated for 48 hrs by sulforhodamine B assay relative to control; type: functional; details: HCC 2998, 48 h, read-out: Activity
SF-295 = assay: Growth inhibition of human SF295 cells assessed as cell growth at 0.01 uM incubated for 48 hrs by sulforhodamine B assay relative to control; type: functional; details: SF-295, 48 h, read-out: Activity
SK-MEL-5 [5] = assay: Growth inhibition of human SK-MEL-5 cells assessed as cell growth at 0.01 uM incubated for 48 hrs by sulforhodamine B assay relative to control; type: functional; details: SK-MEL-5, 48 h, read-out: Activity
OVCAR-3 = assay: Growth inhibition of human OVCAR3 cells assessed as cell growth at 0.01 uM incubated for 48 hrs by sulforhodamine B assay relative to control; type: functional; details: OVCAR-3, 48 h, read-out: Activity
MDA-MB-468 [6] = assay: Growth inhibition of human MDA-MB-468 cells assessed as cell growth at 0.01 uM incubated for 48 hrs by sulforhodamine B assay relative to control; type: functional; details: MDA-MB-468, 48 h, read-out: Activity
SW-620 = assay: Growth inhibition of human SW620 cells assessed as cell growth at 0.1 uM incubated for 48 hrs by sulforhodamine B assay relative to control; type: functional; details: SW-620, 48 h, read-out: Activity
SF-268 = assay: Growth inhibition of human SF268 cells assessed as cell growth at 0.1 uM incubated for 48 hrs by sulforhodamine B assay relative to control; type: functional; details: SF-268, 48 h, read-out: Activity
LOX IMVI = assay: Growth inhibition of human LOXIMVI cells assessed as cell growth at 0.1 uM incubated for 48 hrs by sulforhodamine B assay relative to control; type: functional; details: read-out: Activity
SK-MEL-5 [7] = assay: Growth inhibition of human SK-MEL-5 cells assessed as cell growth at 0.1 uM incubated for 48 hrs by sulforhodamine B assay relative to control; type: functional; details: SK-MEL-5, 48 h, read-out: Activity
HOP-62 = assay: Growth inhibition of human HOP62 cells assessed as cell growth at 1 uM incubated for 48 hrs by sulforhodamine B assay relative to control; type: functional; details: HOP-62, 48 h, read-out: Activity
NCI-H23 [8] = assay: Growth inhibition of human NCI-H23 cells assessed as cell growth at 1 uM incubated for 48 hrs by sulforhodamine B assay relative to control; type: functional; details: NCI-H23, 48 h, read-out: Activity
HT-29 = assay: Growth inhibition of human HT-29 cells assessed as cell growth at 1 uM incubated for 48 hrs by sulforhodamine B assay relative to control; type: functional; details: HT-29, 48 h, read-out: Activity
OVCAR-8 = assay: Growth inhibition of human OVCAR8 cells assessed as cell growth at 1 uM incubated for 48 hrs by sulforhodamine B assay relative to control; type: functional; details: OVCAR-8, 48 h, read-out: Activity
MOLT-4 = assay: Growth inhibition of human MOLT4 cells assessed as cell growth at 100 uM incubated for 48 hrs by sulforhodamine B assay relative to control; type: functional; details: MOLT-4, 48 h, read-out: Activity
HCT-116 = assay: Growth inhibition of human HCT116 cells assessed as cell growth at 100 uM incubated for 48 hrs by sulforhodamine B assay relative to control; type: functional; details: HCT-116, 48 h, read-out: Activity
SNB-19 = assay: Growth inhibition of human SNB19 cells assessed as cell growth at 100 uM incubated for 48 hrs by sulforhodamine B assay relative to control; type: functional; details: SNB-19, 48 h, read-out: Activity
PC-3 [9] = assay: Growth inhibition of human PC3 cells assessed as cell growth at 100 uM incubated for 48 hrs by sulforhodamine B assay relative to control; type: functional; details: PC-3, 48 h, read-out: Activity
MDA-MB-468 [10] = assay: Growth inhibition of human MDA-MB-468 cells assessed as cell growth at 100 uM incubated for 48 hrs by sulforhodamine B assay relative to control; type: functional; details: MDA-MB-468, 48 h, read-out: Activity
[11] = read-out: LC50 (the source's name)
[12] = read-out: pLC50 (the source's name) (converted)

Question: For `O=C(Nc1cccc(-n2cc(-c3ccncc3)c(-c3cc(O)cc(Cl)c3)n2)c1)c1cc(C(F)(F)F)cc(C(F)(F)F)c1`, which GI50 (NCI-H23 [1]; read-out: GI50) is on record?
Answer: 4.18 µM

Question: What about the LC50 (NCI-H23 [1]; read-out: LC50) of the same molecule?
Answer: > 100 µM

Question: And the TGI (NCI-H23 [1]; read-out: TGI)?
Answer: 45.5 µM

Question: What about the GI50 (NCI-H23 [1]; read-out: pGI50 (converted)) of the same molecule?
Answer: 4.17 µM

Question: And the LC50 (NCI-H23 [1]; read-out: pLC50 (converted))?
Answer: > 100 µM

Question: And the TGI (NCI-H23 [1]; read-out: pTGI (converted))?
Answer: 46.8 µM

Question: What about the GI50 (HCC 2998 [2]; read-out: GI50) of the same molecule?
Answer: 3.12 µM

Question: What about the CC50 (HCC 2998 [2]; [11]) of the same molecule?
Answer: > 100 µM

Question: And the TGI (HCC 2998 [2]; read-out: TGI)?
Answer: 11.6 µM

Question: What about the GI50 (HCC 2998 [2]; read-out: pGI50 (converted)) of the same molecule?
Answer: 3.09 µM

Question: And the CC50 (HCC 2998 [2]; [12])?
Answer: > 100 µM

Question: And the TGI (HCC 2998 [2]; read-out: pTGI (converted))?
Answer: 11.7 µM

Question: What about the GI50 (HCT-15; read-out: GI50) of the same molecule?
Answer: 2.5 µM

Question: And the CC50 (HCT-15; [11])?
Answer: > 100 µM

Question: And the TGI (HCT-15; read-out: TGI)?
Answer: 14.7 µM

Question: And the GI50 (HCT-15; read-out: pGI50 (converted))?
Answer: 2.57 µM

Question: And the CC50 (HCT-15; [12])?
Answer: > 100 µM

Question: What about the TGI (HCT-15; read-out: pTGI (converted)) of the same molecule?
Answer: 14.8 µM

Question: And the GI50 (M14; read-out: GI50)?
Answer: 3.01 µM

Question: What about the CC50 (M14; [11]) of the same molecule?
Answer: > 100 µM

Question: What about the TGI (M14; read-out: TGI) of the same molecule?
Answer: > 100 µM

Question: What about the GI50 (M14; read-out: pGI50 (converted)) of the same molecule?
Answer: 3.02 µM

Question: What about the CC50 (M14; [12]) of the same molecule?
Answer: > 100 µM

Question: And the TGI (M14; read-out: pTGI (converted))?
Answer: > 100 µM

Question: What about the GI50 (SK-MEL-28; read-out: GI50) of the same molecule?
Answer: 4.71 µM

Question: And the CC50 (SK-MEL-28; [11])?
Answer: > 100 µM

Question: And the TGI (SK-MEL-28; read-out: TGI)?
Answer: 85.3 µM

Question: What about the GI50 (SK-MEL-28; read-out: pGI50 (converted)) of the same molecule?
Answer: 4.68 µM

Question: What about the CC50 (SK-MEL-28; [12]) of the same molecule?
Answer: > 100 µM

Question: And the TGI (SK-MEL-28; read-out: pTGI (converted))?
Answer: 85.1 µM

Question: What about the IC50 (PC-3 [3]) of the same molecule?
Answer: 2.28 µM

Question: What about the GI50 (PC-3 [3]; read-out: GI50) of the same molecule?
Answer: 2.28 µM

Question: What about the CC50 (PC-3 [3]; [11]) of the same molecule?
Answer: > 100 µM

Question: What about the TGI (PC-3 [3]; read-out: TGI) of the same molecule?
Answer: 22.5 µM

Question: And the GI50 (PC-3 [3]; read-out: pGI50 (converted))?
Answer: 2.29 µM

Question: And the CC50 (PC-3 [3]; [12])?
Answer: > 100 µM

Question: What about the TGI (PC-3 [3]; read-out: pTGI (converted)) of the same molecule?
Answer: 28.2 µM

Question: And the growth at 0.01 µM (SR)?
Answer: 94%

Question: What about the growth at 0.01 µM (NCI-H460) of the same molecule?
Answer: 101%

Question: And the growth at 0.01 µM (HCC 2998 [4])?
Answer: 94%

Question: What about the growth at 0.01 µM (SF-295) of the same molecule?
Answer: 92%

Question: And the growth at 0.01 µM (SK-MEL-5 [5])?
Answer: 97%

Question: What about the growth at 0.01 µM (OVCAR-3) of the same molecule?
Answer: 102%

Question: And the growth at 0.01 µM (MDA-MB-468 [6])?
Answer: 91%

Question: What about the growth at 0.1 µM (SW-620) of the same molecule?
Answer: 98%

Question: What about the growth at 0.1 µM (SF-268) of the same molecule?
Answer: 95%

Question: What about the growth at 0.1 µM (LOX IMVI) of the same molecule?
Answer: 102%

Question: What about the growth at 0.1 µM (SK-MEL-5 [7]) of the same molecule?
Answer: 95%

Question: And the growth at 1 µM (HOP-62)?
Answer: 100%

Question: What about the growth at 1 µM (NCI-H23 [8]) of the same molecule?
Answer: 98%

Question: And the growth at 1 µM (HT-29)?
Answer: 79%

Question: And the growth at 1 µM (OVCAR-8)?
Answer: 91%

Question: And the growth at 100 µM (MOLT-4)?
Answer: 3%

Question: What about the growth at 100 µM (HCT-116) of the same molecule?
Answer: 5%

Question: What about the growth at 100 µM (SNB-19) of the same molecule?
Answer: 34%

Question: What about the growth at 100 µM (PC-3 [9]) of the same molecule?
Answer: -8%

Question: What about the growth at 100 µM (MDA-MB-468 [10]) of the same molecule?
Answer: 2%
